Source: patent publication US10155817B2, “Dual-target antibody targeting VEGFR-2 and DLL4 and pharmaceutical composition including same” (PharmAbcine Inc., priority 2012, dated 2018)

Experiments:
[1] = test system: Notch-1; test: Promoter activity by Notch-1, luciferase reporter in LS174T cells co-cultured with 293-hDLL4; assay type: cell-based, human; conditions: antibody 20 mg/ml, DAPT 5 mM, co-culture with 293-hDLL4 24 hours, luminescence, versus untreated antibody group, FIG. 9
Experimental: 1×10^5 LS174T cells (colon cancer cell line; ATCC, CL-188™) were incubated in RPMI medium containing 10% of fetal calf serum for 24 hours, and 0.8 μg of Notch Cignal reporter DNA contained in Cignal Reporter Assay Kit (#336841 CCS-014L, QIAGEN) and 2 μl of lipofectamine (#11668-500; Invitrogen) were mixed with 100 μl of opti-MEM media and allowed to stand for 20 minutes, and then 400 μl of opti-MEM was added for transfection to incubate cells for 6 hours. After 6 hours, the medium was replaced with an MEM medium containing 10% fetal calf serum, and incubated overnight. Next day, Tanibirumab and PMC-201 (each of 20 mg/ml) were mixed and pre-treated in 1×10^5 of 293-hDLL4 cells for 1 hour, then co-cultured with LS174T cells transfected with Notch Cignal reporter DNA for 24 hours. DAPT (5 mM) was not pre-treated and 293-hDLL4 cell was mixed with the transfected LS174T cells, and co-cultured for 24 hours.
After co-culture for 24 hours, cells were lyzed by using a lysis buffer contained in Dual-Luciferase Reporter Assay System (Cat. # E1910; Promega), and a substrate and ATP were mixed with each other, and then luminescence amount was measured by using Luminometer.

[2] = target: T1, human DLL4 (Homo sapiens, UniProt Q9NR61); test: Biacore affinity analysis to human DLL4; assay type: binding; conditions: BIACORE 3000, CM5 chip, sample immobilized, DLL4 4.9-312.5 nM as antigen, FIG. 5
T1 construct: expressed in transfected cells; host or cells: 293 cells stably transfected with pcDNA-hDLL4 (293-DLL4 pool; clone 293-hDLL4)
T1 sequence (Q9NR61 27-685): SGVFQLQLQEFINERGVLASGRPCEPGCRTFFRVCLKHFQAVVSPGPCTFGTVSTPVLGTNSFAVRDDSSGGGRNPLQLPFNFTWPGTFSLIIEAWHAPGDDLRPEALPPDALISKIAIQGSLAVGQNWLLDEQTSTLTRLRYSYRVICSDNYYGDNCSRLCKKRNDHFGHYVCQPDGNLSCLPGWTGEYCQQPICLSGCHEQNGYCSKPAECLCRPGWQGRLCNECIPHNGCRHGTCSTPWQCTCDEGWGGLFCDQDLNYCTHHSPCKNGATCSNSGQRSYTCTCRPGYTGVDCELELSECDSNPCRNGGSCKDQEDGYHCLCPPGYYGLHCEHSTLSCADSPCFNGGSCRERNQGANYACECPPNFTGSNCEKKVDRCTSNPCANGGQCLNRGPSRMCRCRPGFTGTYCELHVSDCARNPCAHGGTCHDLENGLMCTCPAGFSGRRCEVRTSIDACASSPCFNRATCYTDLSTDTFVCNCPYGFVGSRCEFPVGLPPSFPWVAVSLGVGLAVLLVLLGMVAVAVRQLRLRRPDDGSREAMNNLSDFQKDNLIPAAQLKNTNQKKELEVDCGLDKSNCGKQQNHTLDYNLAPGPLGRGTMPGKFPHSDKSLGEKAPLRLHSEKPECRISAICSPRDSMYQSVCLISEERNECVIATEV
Experimental: In order to calculate Kd (dissociation constant) of PMC-201 to human DLL4, BIACORE® 3000 (GE Healthcare) was used, and CM5 chip was used. The dissociation constant is similar to Km value, and is used as an affinity index of an enzyme to a substrate in an enzyme-substrate complex. The affinity between the enzyme and the substrate is increased as the dissociation constant is decreased.
The sample was immobilized by using 400 mM EDC (N-ethyl-N′-(dimethylaminopropyl) Carbodiimide), 100 mM NHS (N-Hydroxysuccinimide), and 1M ethanolamine hydrochloride (pH 8.5) that are an Amine Coupling Kit (GE Healthcare), and 20 mM sodium hydroxide as a generation buffer, and 1×PBS as an immobilization buffer were diluted, and then the analysis sample was 1:40 diluted in 10 mM acetate (pH 5.0) (GE Healthcare). The sample was immobilized at 4000RU (Response Unit). A buffer for measuring adsorption of the analysis sample was a HBS-EP buffer (GE Healthcare). DLL4s having measurement concentrations of 4.9, 9.7, 19.5, 39.1, 78.1, 156.3, 312.5 nM as an antigen were serial-diluted so as to have a final volume of 200 μl by using an HBS-EP buffer. Five concentrations of seven concentrations were selected and fitted. […] Affinity of the analysis sample was measured under conditions in which an analysis flow rate was 30 μl/min, a binding section was 60 seconds, and a dissociation was 300 seconds.

affinity (Kd, dissociation constant) to human DLL4 [2]	Molecule	promoter activation of NICD exhibited by Notch-1 activation of LS174T cells [1]
	C[C@H](NC(=O)Cc1cc(F)cc(F)c1)C(=O)N[C@H](C(=O)OC(C)(C)C)c1ccccc1 [DAPT, N—[N-(3,5-Difluorophenacetyl)-L-alanyl]-S-phenylglycine t-butyl ester]	decreased
affinity was confirmed	Notch-1 Fc: Notch-1 Fc protein used as comparator for binding to hDLL4 (protein, left off: a dimerising Fc or GST) ARGPRCSQPGETCLNGGKCEAANGTEACVCGGAFVGPRCQDPNPCLSTPCKNAGTCHVVDRRGVADYACSCALGFSGPLCLTPLDNACLTNPCRNGGTCDLLTLTEYKCRCPPGWSGKSCQQADPCASNPCANGGQCLPFEASYICHCPPSFHGPTCRQDVNECGQKPGLCRHGGTCHNEVGSYRCVCRATHTGPNCERPYVPCSPSPCQNGGTCRPTGDVTHECACLPGFTGQNCEENIDDCPGNNCKNGGACVDGVNTYNCRCPPEWTGQYCTEDVDECQLMPNACQNGGTCHNTHGGYNCVCVNGWTGEDCSENIDDCASAACFHGATCHDRVASFYCECPHGRTGLLCHLNDACISNPCNEGSNCDTNPVNGKAICTCPSGYTGPACSQDVDECSLGANPCEHAGKCINTLGSFECQCLQGYTGPRCEIDVNECVSNPCQNDATCLDQIGEFQCICMPGYEGVHCEVNTDECASSPCLHNGRCLDKINEFQCECPTGFTGHLCQ	
